Measurements published in patent US20250176599A1, “FLAVOR COMPOSITION AND FOOD AND BEVERAGE” (TAKASAGO INTERNATIONAL CORPORATION, priority 2021, published 2025).

Columns and labels:
[1] = Sensory evaluation of aqueous solution II containing (E)-2-octenal 10 ppb: off-flavor intensity and masking component intensity; details: average panel score
Procedure, shortened: (§1)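 Eight trained panelists tasted water solutions of the off-flavor compounds spiked with nootkatone. Masking-agent taste was scored absolutely from 0 (not sensed) to 4 (strong). Off-flavor was scored relatively, anchored at 4 for the solution without masker and 0 for ion-exchanged water.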

[2] = Sensory evaluation of aqueous solution V containing 1-octen-3-ol 10 ppb: off-flavor intensity and masking component intensity; details: average panel score
Procedure, shortened: as §1

[3] = Sensory evaluation of aqueous solution III containing 1-octen-3-one 1 ppb: off-flavor intensity and masking component intensity; details: average panel score
Procedure, shortened: as §1

[4] = Sensory evaluation of aqueous solution I containing (E)-2-nonenal 1 ppb: off-flavor intensity and masking component intensity; details: average panel score
Procedure, shortened: as §1

[5] = Sensory evaluation of aqueous solution IV containing 1,5-octadien-3-one 100 ppt: off-flavor intensity and masking component intensity; details: aqueous solution IV, average panel score
Procedure, shortened: as §1

[6] = Sensory evaluation of aqueous solution VI containing 1,5-octadien-3-ol 10 ppb: off-flavor intensity and masking component intensity; details: aqueous solution VI, average panel score
Procedure, shortened: as §1

[7] = Overall conclusion of the sensory evaluation across aqueous solutions I to VI
Procedure, shortened: as §1

For `CC1CCC(C(C)C)C(OCC(O)CO)C1` (centres unmarked) [3-menthoxypropan-1,2-diol], the “Masking Component Intensity” value ([1]; 1 ppb added) was 0.4, the “Off-Flavor Intensity” value ([1]; 1 ppb added) was 3.0 and the “Masking Component Intensity” value ([1]; 1 ppm added) was 1.4. For the same compound, the “Off-Flavor Intensity” value ([1]; 1 ppm added) was 2.3, the “Masking Component Intensity” value ([1]; 10 ppb added) was 0.5 and the “Off-Flavor Intensity” value ([1]; 10 ppb added) was 3.0. For the same compound, the “Masking Component Intensity” value ([1]; 10 ppm added) was 2.0, the “Off-Flavor Intensity” value ([1]; 10 ppm added) was 1.8 and the “Masking Component Intensity” value ([1]; 50 ppm added) was 3.1. The “Off-Flavor Intensity” value ([1]; 50 ppm added) was 1.5, the “Masking Component Intensity” value ([1]; 100 ppb added) was 1.0 and the “Off-Flavor Intensity” value ([1]; 100 ppb added) was 2.8. The “Masking Component Intensity” value ([1]; 100 ppm added) was 4.0, the “Off-Flavor Intensity” value ([1]; 100 ppm added) was 1.1 and the “Masking Component Intensity” value ([1]; 100 ppt added) was 0.4. The “Off-Flavor Intensity” value ([1]; 100 ppt added) was 3.1, the “Masking Component Intensity” value ([2]; 1 ppb added) was 0.3 and the “Off-Flavor Intensity” value ([2]; 1 ppb added) was 3.1. The “Masking Component Intensity” value ([2]; 1 ppm added) was 1.4, the “Off-Flavor Intensity” value ([2]; 1 ppm added) was 2.6 and the “Masking Component Intensity” value ([2]; 10 ppb added) was 0.6. The “Off-Flavor Intensity” value ([2]; 10 ppb added) was 2.6, the “Masking Component Intensity” value ([2]; 10 ppm added) was 2.1 and the “Off-Flavor Intensity” value ([2]; 10 ppm added) was 2.0. For the same compound, the “Masking Component Intensity” value ([2]; 50 ppm added) was 2.0, the “Off-Flavor Intensity” value ([2]; 50 ppm added) was 1.6 and the “Masking Component Intensity” value ([2]; 100 ppb added) was 1.0. For the same compound, the “Off-Flavor Intensity” value ([2]; 100 ppb added) was 2.5, the “Masking Component Intensity” value ([2]; 100 ppm added) was 3.8 and the “Off-Flavor Intensity” value ([2]; 100 ppm added) was 1.4. For the same compound, the “Masking Component Intensity” value ([2]; 100 ppt added) was 0.3, the “Off-Flavor Intensity” value ([2]; 100 ppt added) was 3.3 and the “Masking Component Intensity” value ([3]; 1 ppb added) was 0.5. The “Off-Flavor Intensity” value ([3]; 1 ppb added) was 3.3, the “Masking Component Intensity” value ([3]; 1 ppm added) was 1.5 and the “Off-Flavor Intensity” value ([3]; 1 ppm added) was 2.5. For the same compound, the “Masking Component Intensity” value ([3]; 10 ppb added) was 0.6, the “Off-Flavor Intensity” value ([3]; 10 ppb added) was 2.9 and the “Masking Component Intensity” value ([3]; 10 ppm added) was 2.1. For the same compound, the “Off-Flavor Intensity” value ([3]; 10 ppm added) was 2.3, the “Masking Component Intensity” value ([3]; 50 ppm added) was 3.0 and the “Off-Flavor Intensity” value ([3]; 50 ppm added) was 1.9. The “Masking Component Intensity” value ([3]; 100 ppb added) was 1.1, the “Off-Flavor Intensity” value ([3]; 100 ppb added) was 2.8 and the “Masking Component Intensity” value ([3]; 100 ppm added) was 3.8. The “Off-Flavor Intensity” value ([3]; 100 ppm added) was 1.6, the “Masking Component Intensity” value ([3]; 100 ppt added) was 0.1 and the “Off-Flavor Intensity” value ([3]; 100 ppt added) was 3.3. For the same compound, the “Masking Component Intensity” value ([4]; 1 ppb added) was 0.3, the “Off-Flavor Intensity” value ([4]; 1 ppb added) was 3.4 and the “Masking Component Intensity” value ([4]; 1 ppm added) was 1.1. For the same compound, the “Off-Flavor Intensity” value ([4]; 1 ppm added) was 2.9, the “Masking Component Intensity” value ([4]; 10 ppb added) was 0.6 and the “Off-Flavor Intensity” value ([4]; 10 ppb added) was 3.1. For the same compound, the “Masking Component Intensity” value ([4]; 10 ppm added) was 1.9, the “Off-Flavor Intensity” value ([4]; 10 ppm added) was 2.6 and the “Masking Component Intensity” value ([4]; 50 ppm added) was 2.5. The “Off-Flavor Intensity” value ([4]; 50 ppm added) was 1.9, the “Masking Component Intensity” value ([4]; 100 ppb added) was 0.8 and the “Off-Flavor Intensity” value ([4]; 100 ppb added) was 3.1. For the same compound, the “Masking Component Intensity” value ([4]; 100 ppm added) was 3.3, the “Off-Flavor Intensity” value ([4]; 100 ppm added) was 1.8 and the “Masking Component Intensity” value ([4]; 100 ppt added) was 0.3. The “Off-Flavor Intensity” value ([4]; 100 ppt added) was 3.4, the “Masking Component Intensity” value ([5]; 1 ppb added) was 0.0 and the “Off-Flavor Intensity” value ([5]; 1 ppb added) was 3.8. The “Masking Component Intensity” value ([5]; 1 ppm added) was 1.0, the “Off-Flavor Intensity” value ([5]; 1 ppm added) was 3.3 and the “Masking Component Intensity” value ([5]; 10 ppb added) was 0.1. The “Off-Flavor Intensity” value ([5]; 10 ppb added) was 3.5, the “Masking Component Intensity” value ([5]; 10 ppm added) was 1.5 and the “Off-Flavor Intensity” value ([5]; 10 ppm added) was 2.9. For the same compound, the “Masking Component Intensity” value ([5]; 50 ppm added) was 2.4, the “Off-Flavor Intensity” value ([5]; 50 ppm added) was 2.5 and the “Masking Component Intensity” value ([5]; 100 ppb added) was 0.9. For the same compound, the “Off-Flavor Intensity” value ([5]; 100 ppb added) was 3.5, the “Masking Component Intensity” value ([5]; 100 ppm added) was 3.0 and the “Off-Flavor Intensity” value ([5]; 100 ppm added) was 2.1. For the same compound, the “Masking Component Intensity” value ([5]; 100 ppt added) was 0.0, the “Off-Flavor Intensity” value ([5]; 100 ppt added) was 3.9 and the “Masking Component Intensity” value ([6]; 1 ppb added) was 0.1. The “Off-Flavor Intensity” value ([6]; 1 ppb added) was 3.0, the “Masking Component Intensity” value ([6]; 1 ppm added) was 0.8 and the “Off-Flavor Intensity” value ([6]; 1 ppm added) was 2.6. For the same compound, the “Masking Component Intensity” value ([6]; 10 ppb added) was 0.4, the “Off-Flavor Intensity” value ([6]; 10 ppb added) was 3.0 and the “Masking Component Intensity” value ([6]; 10 ppm added) was 2.0. The “Off-Flavor Intensity” value ([6]; 10 ppm added) was 2.3, the “Masking Component Intensity” value ([6]; 50 ppm added) was 2.9 and the “Off-Flavor Intensity” value ([6]; 50 ppm added) was 1.9. The “Masking Component Intensity” value ([6]; 100 ppb added) was 0.4, the “Off-Flavor Intensity” value ([6]; 100 ppb added) was 3.0 and the “Masking Component Intensity” value ([6]; 100 ppm added) was 3.5. The “Off-Flavor Intensity” value ([6]; 100 ppm added) was 1.3, the “Masking Component Intensity” value ([6]; 100 ppt added) was 0.0 and the “Off-Flavor Intensity” value ([6]; 100 ppt added) was 3.0. For the same compound, the “concentration that masks the off-flavor and does not affect the flavor of the food and/or beverage itself, lower limit” value [7] was no less than 100 ppt and the “concentration that masks the off-flavor and does not affect the flavor of the food and/or beverage itself, upper limit” value [7] was no more than 100 ppm.
